Reference: patent publication US20250288584A1, “COMBINATIONS COMPRISING POSITIVE ALLOSTERIC MODULATORS OR ORTHOSTERIC AGONISTS OF METABOTROPIC GLUTAMATERGIC RECEPTOR SUBTYPE 2 AND THEIR USE” (JANSSEN PHARMACEUTICA NV, priority 2014, published 2025)
Like-named read-outs stand apart in the source and are kept apart here.

Target: T1, human mGlu2 receptor (Homo sapiens, UniProt Q14416)
T1 construct: expressed in transfected cells; host or cells: CHO cells
Experiment: [35S]GTPγS binding assay, mGluR2 PAM
Format: biochemical
Details: for GTPγS-hmGluR2 PAM Emax / Emax: EC20 glutamate; for EC50 / GTPγS-hmGluR2 PAM pEC50: in presence of EC20 glutamate; for EC50: read-out: GTPγS-hmGluR2 PAM pEC50 (converted)
Protocol: The [^35S]GTPγS binding assay is a functional membrane-based assay used to study G-protein coupled receptor (GPCR) function whereby incorporation of a non-hydrolysable form of GTP, [^35S]GTPγS (guanosine 5′-triphosphate, labelled with […] ^35S), is measured.
Cells were then collected by scraping in PBS and cell suspension was centrifuged (10 min at 4000 RPM in benchtop centrifuge). Supernatant was discarded and pellet gently resuspended in 50 mM Tris-HCl, pH 7.4 by mixing with a vortex and pipetting up and down. The suspension was centrifuged at 16,000 RPM (Sorvall RC-5C plus rotor SS-34) for 10 minutes and the supernatant discarded. The pellet was homogenized in 5 mM Tris-HCl, pH 7.4 using an ultra-turrax homogenizer and centrifuged again (18,000 RPM, 20 min, 4° C.). The final pellet was resuspended in 50 mM Tris-HCl, pH 7.4 and stored at-80° C. in appropriate aliquots before use. Protein concentration was determined by the Bradford method (Bio-Rad, USA) with bovine serum albumin as standard.
Measurement of mGluR2 positive allosteric modulatory activity of test compounds was performed as follows. Test compounds and glutamate were diluted in assay buffer containing 10 mM HEPES acid, 10 mM HEPES salt, pH 7.4, 100 mM NaCl, 3 mM MgCl2 and 10 μM GDP. Human mGlu2 receptor-containing membranes were thawed on ice and diluted in assay buffer supplemented with 14 μg/ml saponin. Membranes were pre-incubated with compound alone or together with a predefined (˜EC20) concentration of glutamate (PAM assay) for 30 min at 30° C. After addition of [^35S] GTPγS (f.c. 0.1 nM), assay mixtures were shaken briefly and further incubated to allow [^35S] GTPγS incorporation on activation (30 minutes, 30° C.). Final assay mixtures contained 7 μg of membrane protein in 10 mM HEPES acid, 10 mM HEPES salt, pH 7.4, 100 mM NaCl, 3 mM MgCl2, 10 µM GDP and 2 μg/ml saponin. Total reaction volume was 200 μl. Reactions were terminated by rapid filtration through Unifilter-96 GF/B plates (Perkin Elmer, Massachusetts, USA) using a 96-well filtermate universal harvester. Filters were washed 6 times with ice-cold 10 mM NaH2PO4/10 mM Na2HPO4, pH 7.4. Filters were then air-dried, and 40 μl of liquid scintillation cocktail (Microscint-O) was added to each well. Membrane-bound radioactivity was counted in a Microplate Scintillation and Luminescence Counter from Perkin Elmer.
The concentration-response curves of representative compounds of the present invention-obtained in the presence of EC20 of mGluR2 agonist glutamate to determine positive allosteric modulation (PAM)—were generated using the Lexis software interface (developed at J&J). Data were calculated as % of the control glutamate response, defined as the maximal response that is generated upon addition of glutamate alone. Sigmoid concentration-response curves plotting these percentages versus the log concentration of the test compound were analyzed using non-linear regression analysis. The concentration producing half-maximal effect is then calculated as EC50. The pEC50 values below were calculated as the −log EC50, when the EC50 is expressed in M. Emax is defined as relative maximal effect (i.e. maximal % effect relative to the control glutamate response).

[1] = maximal % effect relative to control glutamate response, read-out: GTPγS-hmGluR2 PAM Emax

T1 sequence (Q14416 19-872): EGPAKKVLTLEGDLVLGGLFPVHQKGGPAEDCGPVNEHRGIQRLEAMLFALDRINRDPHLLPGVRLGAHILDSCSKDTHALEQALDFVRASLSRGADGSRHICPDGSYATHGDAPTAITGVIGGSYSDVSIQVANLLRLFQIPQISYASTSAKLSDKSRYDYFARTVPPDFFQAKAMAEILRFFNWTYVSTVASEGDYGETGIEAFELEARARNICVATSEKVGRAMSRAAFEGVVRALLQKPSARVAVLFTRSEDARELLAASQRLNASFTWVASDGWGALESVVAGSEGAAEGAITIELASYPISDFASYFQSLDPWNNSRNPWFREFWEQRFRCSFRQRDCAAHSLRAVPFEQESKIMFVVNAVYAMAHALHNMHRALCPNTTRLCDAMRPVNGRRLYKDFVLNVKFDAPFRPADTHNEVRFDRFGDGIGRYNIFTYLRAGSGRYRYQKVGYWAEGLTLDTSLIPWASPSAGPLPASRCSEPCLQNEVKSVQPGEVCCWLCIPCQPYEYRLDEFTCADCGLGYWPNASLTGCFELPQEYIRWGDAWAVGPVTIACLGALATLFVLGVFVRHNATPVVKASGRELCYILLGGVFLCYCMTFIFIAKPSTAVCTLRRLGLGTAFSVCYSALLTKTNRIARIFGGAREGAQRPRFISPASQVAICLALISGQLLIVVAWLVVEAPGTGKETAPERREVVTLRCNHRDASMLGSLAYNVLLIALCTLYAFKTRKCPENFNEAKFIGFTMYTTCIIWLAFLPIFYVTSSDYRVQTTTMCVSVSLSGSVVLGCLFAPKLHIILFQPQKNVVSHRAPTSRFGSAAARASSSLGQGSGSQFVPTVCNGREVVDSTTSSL

SMILES | Emax [1] | other results
CC(Oc1ccc(F)cc1)c1ccn2c(CC3CC3)nnc2c1C(F)(F)F (single isomer, unassigned) [Co. No. 2-b, 3-(Cyclopropylmethyl)-7-[(1*R)-1-(4-fluorophenoxy)ethyl]-8-(trifluoromethyl)[1,2,4]triazolo[4,3-a]pyridine] |  | GTPγS-hmGluR2 PAM Emax (maximal % effect relative to control glutamate response, listed as 2-b): 228%
CC(Oc1ccc(F)cc1)c1ccn2c(CC3CC3)nnc2c1C(F)(F)F (single isomer, unassigned) [Co. No. 3-b, 3-(Cyclopropylmethyl)-7-[(1*S)-1-(4-fluorophenoxy)ethyl]-8-(trifluoromethyl)[1,2,4]triazolo[4,3-a]pyridine] |  | GTPγS-hmGluR2 PAM Emax (maximal % effect relative to control glutamate response, listed as 3-b): 187%
CC(Oc1ccc(F)cc1F)c1ccn2c(CC3CCC3)nnc2c1C(F)(F)F (single isomer, unassigned) [Co. No. 18-b, 3-(Cyclobutylmethyl)-7-[(1*S)-1-(2,4-difluorophenoxy)ethyl]-8-(trifluoromethyl)[1,2,4]triazolo[4,3-a]pyridine] | 213% | EC50: 575 nM
CCOCc1nnc2c(C(F)(F)F)c(C(C)Oc3ccc(F)cc3F)ccn12 (single isomer, unassigned) [Co. No. 20-b, 7-[(1*R)-1-(2,4-Difluorophenoxy)ethyl]-3-(ethoxymethyl)-8-(trifluoromethyl)[1,2,4]triazolo[4,3-a]pyridine] |  | GTPγS-hmGluR2 PAM Emax (maximal % effect relative to control glutamate response, listed as 20-b): 332%
CCOCc1nnc2c(C(F)(F)F)c(C(C)Oc3ccc(F)cc3F)ccn12 (single isomer, unassigned) [Co. No. 21-b, 7-[(1*S)-1-(2,4-Difluorophenoxy)ethyl]-3-(ethoxymethyl)-8-(trifluoromethyl)[1,2,4]triazolo[4,3-a]pyridine] |  | GTPγS-hmGluR2 PAM Emax (maximal % effect relative to control glutamate response, listed as 21-b): 102%
CCOCc1nnc2c(C(F)(F)F)c(C(C)Oc3c(F)cc(F)cc3F)ccn12 (single isomer, unassigned) [Co. No. 22-b, 3-(Ethoxymethyl)-8-(trifluoromethyl)-7-[(1*R)-1-(2,4,6-trifluorophenoxy)ethyl][1,2,4]triazolo[4,3-a]pyridine] |  | GTPγS-hmGluR2 PAM Emax (maximal % effect relative to control glutamate response, listed as 22-b): 325%
CCOCc1nnc2c(C(F)(F)F)c(C(C)Oc3c(F)cc(F)cc3F)ccn12 (single isomer, unassigned) [Co. No. 23-b, 3-(Ethoxymethyl)-8-(trifluoromethyl)-7-[(1*S)-1-(2,4,6-trifluorophenoxy)ethyl][1,2,4]triazolo[4,3-a]pyridine] |  | GTPγS-hmGluR2 PAM Emax (maximal % effect relative to control glutamate response, listed as 23-b): 167%
CCCc1nnc2c(C(F)(F)F)c(C(C)Oc3ccc(F)cc3F)ccn12 (single isomer, unassigned) [Co. No. 31-b] |  | EC50: 89.1 nM; GTPγS-hmGluR2 PAM Emax (maximal % effect relative to control glutamate response, listed as 31-b): 251%
CCCc1nnc2c(C(F)(F)F)c(C(C)Oc3ccc(F)cc3F)ccn12 (single isomer, unassigned) [Co. No. 32-b] |  | EC50: 1950 nM; GTPγS-hmGluR2 PAM Emax (maximal % effect relative to control glutamate response, listed as 32-b): 116%
O=c1c(Cl)c(N2CCC(c3ccccc3)CC2)ccn1CC1CC1 [Co. No. 1-a] | 314% | EC50: 166 nM
CC(Oc1ccc(F)cc1)c1ccn2c(CC3CC3)nnc2c1C(F)(F)F (stereo not shown) [Co. No. 1-b, 3-(Cyclopropylmethyl)-7-[1-(4-fluorophenoxy)ethyl]-8-(trifluoromethyl)[1,2,4]triazolo-[4,3-a]pyridine] | 296% | 
O=c1c(Br)c(N2CCC(c3ccccc3)CC2)ccn1CC1CC1 [Co. No. 3-a] | 231% | 
CC1(c2ccc(F)cc2)CCN(Cc2ccn3c(CC4CC4)nnc3c2C(F)(F)F)CC1 [Co. No. 3] |  | Emax (read-out: GTPγS-hmGluR2 PAM Emax, maximal % effect relative to control glutamate response): 212%
O=c1c(C(F)(F)F)c(N2CCC(c3ccccc3)CC2)ccn1CC1CC1 [Co. No. 4-a] | 269% | GTPγS-hmGluR2 PAM pEC50: 6.6
CC(Oc1ccc(F)cc1F)c1ccn2c(CC3CC3)nnc2c1C(F)(F)F (stereo not shown) [Co. No. 4-b, 3-(Cyclopropylmethyl)-7-[1-(2,4-difluorophenoxy)ethyl]-8-(trifluoromethyl)[1,2,4]triazolo-[4,3-a]pyridine] | 329% | 
C[C@@H](Oc1ccc(F)cc1F)c1ccn2c(CC3CC3)nnc2c1C(F)(F)F [Co. No. 5-b, 3-(Cyclopropylmethyl)-7-[(1R)-1-(2,4-difluorophenoxy)ethyl]-8-(trifluoromethyl)[1,2,4]triazolo[4,3-a]pyridine] | 141% | 
Fc1ccc(N2CCN(Cc3ccn4c(CC5CC5)nnc4c3Cl)CC2)c(F)c1 [Co. No. 5] | 231% | EC50: 550 nM

SMILES | Emax [1] | other results
N#CC1(c2ccccc2)CCN(c2ccn(CC3CC3)c(=O)c2Cl)CC1 [Co. No. 6-a] | 255% | 
CCCCn1ccc(N2CCC(F)(c3ccccc3)CC2)c(Cl)c1=O [Co. No. 7-a] | 291% | EC50: 229 nM
C[C@H](Oc1cc(F)cc(F)c1)c1ccn2c(CC3CC3)nnc2c1C(F)(F)F [Co. No. 7-b, 3-(Cyclopropylmethyl)-7-[(1S)-1-(3,5-difluorophenoxy)ethyl]-8-(trifluoromethyl)[1,2,4]triazolo[4,3-a]pyridine] | 292% | 
CC1(C)OC2(CCN(c3ccn4c(CC5CC5)nnc4c3C(F)(F)F)CC2)c2ccc(F)cc21 [Co. No. 7] | 263% | 
O=c1c(C2CC2)c(N2CCC(c3ccccc3)CC2)ccn1CC1CC1 [Co. No. 8-a] | 157% | 
C[C@H](Oc1ccc(F)c(F)c1)c1ccn2c(CC3CC3)nnc2c1C(F)(F)F [Co. No. 8-b, 3-(Cyclopropylmethyl)-7-[(1S)-1-(3,4-difluorophenoxy)ethyl]-8-(trifluoromethyl)[1,2,4]triazolo[4,3-a]pyridine] | 244% | 
FC(F)(F)c1c(N2CCN(c3ncccn3)CC2)ccn2c(CC3CC3)nnc12 [Co. No. 8] | 360% | EC50: 186 nM
CC(C)(O)c1ccc(C2CCN(c3ccn(CC4CC4)c(=O)c3C3CC3)CC2)cc1 [Co. No. 9-a] | 222% | EC50: 257 nM
C[C@H](Oc1cccc(F)c1F)c1ccn2c(CC3CC3)nnc2c1C(F)(F)F [Co. No. 9-b, 3-(Cyclopropylmethyl)-7-[(1S)-1-(2,3-difluorophenoxy)ethyl]-8-(trifluoromethyl)[1,2,4]triazolo[4,3-a]pyridine] | 260% | 
COc1cnc(N2CCN(c3ccn4c(CC5CC5)nnc4c3C(F)(F)F)CC2)nc1 [Co. No. 9] | 462% | EC50: 126 nM
O=c1c(Cl)c(N2CCC(c3ccccc3)CC2)ccn1CCC1CC1 [Co. No. 10-a] | 290% | GTPγS-hmGluR2 PAM pEC50: 6.88
C[C@H](Oc1cc(F)ccc1F)c1ccn2c(CC3CC3)nnc2c1C(F)(F)F [Co. No. 10-b, 3-(Cyclopropylmethyl)-7-[(1S)-1-(2,5-difluorophenoxy)ethyl]-8-(trifluoromethyl)[1,2,4]triazolo[4,3-a]pyridine] | 218% | 
Fc1ccc(C2CCN(c3ccn4c(CC5CC5)nnc4c3Cl)CC2)c(F)c1 [Co. No. 10] | 357% | 
CCCCCn1ccc(N2CCC(c3ccccc3)CC2)c(Cl)c1=O [Co. No. 11-a] | 249% | GTPγS-hmGluR2 PAM pEC50: 7.11
C[C@H](Oc1c(F)cccc1F)c1ccn2c(CC3CC3)nnc2c1C(F)(F)F [Co. No. 11-b, 3-(Cyclopropylmethyl)-7-[(1S)-1-(2,6-difluorophenoxy)ethyl]-8-(trifluoromethyl)[1,2,4]triazolo[4,3-a]pyridine] | 239% | 
O=c1c(Cl)c(N2CCC(c3ccccc3F)CC2)ccn1CC1CC1 [Co. No. 12-a] | 242% | GTPγS-hmGluR2 PAM pEC50: 7.03
